Test results taken from patent US10617662B2, “Autophagy activation-induced compound for improving skin inflammation for aging” (INCOSPHARM CORPORATION, priority 2017, dated 2020).

System: Tbet (T-box transcription factor)
Assay: Expression of psoriasis-related transcription factor Tbet in induced inflammatory condition
Assay type: cell-based, human
Details: IL-17A/TNFα- or IL-17A/IFNγ-induced inflammatory condition
Procedure: [The source words this procedure for another target and says it was used here with some conditions changed.] A psoriasis-related genes were selected from the cDNA array result in which Compound 8 of the present invention was treated in HaCaT cells. In order to analyze whether Compound 8 has an effect on psoriasis alleviation, RT-PCR analysis for IL-36′ (interleukin 36 gamma), KLK7 (Kallikrein-related peptidase 7), OASL (2′-5′-Oligoadenylate Synthetase Like) and ALOX12B (Arachidonate 12-lipoxygenase, 12R type) which are very closely related to psoriasis was carried out. Further, KRT16 (Keratin 16), KRT6 (Keratin 6) and KRT1 (Keratin 1), known as psoriasis-related proliferation, differentiation markers were confirmed by a western blot analysis. As the specific experimental method, HEKa cells (Human Epidermal keratinocytes, adult), human-derived epidermal keratinocytes were seeded on a 24 well plate at a density of 1×10^5 cells, and cultured in an EpiLife medium (1× Human keratinocyte Growth supplement, 1× antibiotics) in an incubator under 37° C. and 5% CO2 for 24 hours. […]

With `CCCCCCCCCCCCCCCC(=O)NCCCC[C@H](NC(=O)[C@H](CCCCN(CC(=O)O)CC(=O)O)N(CC(=O)O)CC(=O)O)C(=O)O` [Compound 8] the “expression level of Tbet” value was “reduced”.
